Data reported in US7932262B2 (Novartis AG, priority 2006, dated 2011).
Like-named read-outs stand apart in the source and are kept apart here.

Columns and labels:
PDK1 kinase = target: T1, PDK1 kinase (Homo sapiens, UniProt O15530); assay: PDK1 Kinase Alpha Screen Assay; type: biochemical; conditions: PDK1 Kinase Alpha Screen Assay; read-out: PDK1 IC50
T1 sequence (O15530 1-556): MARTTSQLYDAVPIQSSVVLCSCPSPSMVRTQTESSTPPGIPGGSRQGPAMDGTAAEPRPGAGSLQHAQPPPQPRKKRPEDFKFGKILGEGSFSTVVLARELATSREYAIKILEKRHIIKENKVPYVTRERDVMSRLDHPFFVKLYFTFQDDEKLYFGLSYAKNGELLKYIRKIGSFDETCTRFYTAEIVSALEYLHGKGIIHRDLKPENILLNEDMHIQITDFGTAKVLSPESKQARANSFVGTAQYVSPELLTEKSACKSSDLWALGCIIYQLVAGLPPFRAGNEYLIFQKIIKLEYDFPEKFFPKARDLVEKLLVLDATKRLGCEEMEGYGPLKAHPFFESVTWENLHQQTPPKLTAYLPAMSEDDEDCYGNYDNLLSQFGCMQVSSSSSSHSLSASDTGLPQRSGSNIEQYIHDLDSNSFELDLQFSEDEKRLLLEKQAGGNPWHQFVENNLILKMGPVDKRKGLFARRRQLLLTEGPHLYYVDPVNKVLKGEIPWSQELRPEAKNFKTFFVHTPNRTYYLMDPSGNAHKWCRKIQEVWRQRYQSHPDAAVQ
Summary of the method: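 Kinase inhibition measured as loss of AlphaScreen signal from antibody recognition of phosphorylated biotin-PDK1-4 peptide. Reactions contain 10 uM ATP and 50 nM peptide, run 3-18 hours before EDTA quench and overnight bead development at room temperature.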

PC-3 cells = assay: Cell Proliferation Assay (Cell Titer Glo), PC-3 cell line; type: cell-based; conditions: PC3, read-out: CPEC50 PC3
Summary of the method: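 Cell Titer Glo luminescence, read after fresh medium replaced the dosing medium, gave viability of PC-3 cells plated at 1000 cells/well. Compounds, 1:3 serially diluted in DMSO at 500× and then in medium, were added after 3-5 h adhesion and incubated 3 days at 37° C.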

[1] = Homo sapiens, PC-3, Cell Proliferation Assay

| IC50 (PDK1 kinase) | EC50 (PC-3 cells; [1]) | EC50 (PC-3 cells; Cell Proliferation Assay) | SMILES |
| --- | --- | --- | --- |
| < 5 µM | < 5 µM | – | CC(C)NS(=O)(=O)c1ccc(Nc2ncc3ccc(NC4CCN(C)CC4)cc3n2)cc1 [Compound 350, N-isopropyl-4-(7-(1-methylpiperidin-4-ylamino)quinazolin-2-ylamino)benzenesulfonamide] |
| < 5 µM | 5 to 10 µM | – | O=C(c1ccc(Nc2ncc3ccc(-c4cnn(CCO)c4)cc3n2)cc1)N1CCOCC1 [Compound 353, (4-(7-(1-(2-hydroxyethyl)-1H-pyrazol-4-yl)quinazolin-2-ylamino)phenyl)(morpholino)methanone] |
| < 5 µM | < 5 µM | – | CN1CCC(Nc2ccc3cnc(Nc4ccc(N5CCOCC5)c(Cl)c4)nc3c2)CC1 [Compound 355, N2-(3-chloro-4-morpholinophenyl)-N7-(1-methylpiperidin-4-yl)quinazoline-2,7-dimaine] |
| < 5 µM | < 5 µM | – | CC(C)NS(=O)(=O)c1ccc(Nc2ncc3c(Br)ccc(OC4CCN(C(C)C)CC4)c3n2)cc1 [Compound 357, 4-(5-bromo-8-(1-isopropylpiperidin-4-yloxy)quinazolin-2-ylamino)-N-isopropylbenzenesulfonamide] |
| < 5 µM | 5 to 10 µM | – | Cc1ccc(OC2CCN(C(C)C)CC2)c2nc(Nc3ccc(C(=O)N4CCOCC4)cc3)ncc12 [Compound 359, (4-(8-(1-isopropylpiperidin-4-yloxy)-5-methylquinazolin-2-ylamino)phenyl)(morpholino)methanone] |
| < 5 µM | < 5 µM | – | Cc1ccc(OC2CCNCC2)c2nc(Nc3ccc(N4CCOCC4)c(Cl)c3)ncc12 [Compound 362, N-(3-chloro-4-morpholinophenyl)-5-methyl-8-(piperidin-4-yloxy)quinazolin-2-amine] |
| < 5 µM | < 5 µM | – | Clc1cc(Nc2ncc3ccc(NC4CCNCC4)cc3n2)ccc1N1CCOCC1 [Compound 363, N2-(3-chloro-4-morpholinophenyl)-N7-(piperidin-4-yl)quinazoline-2,7-diamine] |
| < 5 µM | 5 to 10 µM | – | Cc1ccc(OC2CCNCC2)c2nc(Nc3cccc(F)c3)ncc12 [Compound 365, N-(3-fluorophenyl)-5-methyl-8-(piperidin-4-yloxy)quinazolin-2-amine] |
| < 5 µM | 5 to 10 µM | – | CN1CCC(Nc2ccc3cnc(Nc4ccc(N5CCOCC5)cc4)nc3c2)CC1 [Compound 369, N7-(1-methylpiperidin-4-yl)-N2-(4-morpholinophenyl)quinazoline-2,7-diamine] |
| 10 to 25 µM | < 5 µM | – | CN1CCN(c2ccc(Nc3ncc4c(Br)ccc(OC5CCNCC5)c4n3)cc2)CC1 [Compound 373, 5-bromo-N-(4-(4-methylpiperazin-1-yl)phenyl)-8-(piperidin-4-yloxy)quinazolin-2-amine] |
| < 5 µM | < 5 µM | – | CN1CCC(Nc2ccc(Cl)c3cnc(Nc4ccc(C(=O)N5CCOCC5)cc4)nc23)CC1 [Compound 377, (4-(5-chloro-8-(1-methylpiperidin-4-ylamino)quinazolin-2-ylamino)phenyl) (morpholino)methanone] |
| < 5 µM | < 5 µM | – | O=C(c1ccc(Nc2ncc3c(Cl)ccc(OC4CCNCC4)c3n2)cc1F)N1CCOCC1 [Compound 378, (4-(5-chloro-8-(piperidin-4-yloxy)quinazolin-2-ylamino)-2-fluorophenyl)(morpholino)methanone] |
| < 5 µM | < 5 µM | – | CC(C)NC(=O)c1ccc(Nc2ncc3c(Cl)ccc(OC4CCNCC4)c3n2)cc1F [Compound 379, 4-(5-chloro-8-(piperidin-4-yloxy)quinazolin-2-ylamino)-2-fluoro-N-isopropylbenzamide] |
| < 5 µM | < 5 µM | – | NC(=O)c1cc(Nc2ncc3c(Cl)ccc(OC4CCNCC4)c3n2)cc(C(F)(F)F)c1 [Compound 381, 3-(5-chloro-8-(piperidin-4-yloxy)quinazolin-2-ylamino)-5-(trifluoromethyl)benzamide] |
| < 5 µM | 5 to 10 µM | – | CC(=O)Nc1cc(NC(C)=O)cc(Nc2ncc3c(Cl)ccc(OC4CCNCC4)c3n2)c1 [Compound 382, N,N′-(5-(5-chloro-8-(piperidin-4-yloxy)quinazolin-2-ylamino)-1,3-phenylene)diacetamide] |
| < 5 µM | 5 to 10 µM | – | COc1ccc(C(F)(F)F)c2cnc(Nc3ccc(C(=O)N4CCOCC4)cc3)nc12 [Compound 383] |
| < 5 µM | 5 to 10 µM | – | FC(F)(F)c1ccc(OC2CCNCC2)c2nc(Nc3ccc(N4CCOCC4)cc3)ncc12 [Compound 384, N-(4-morpholinophenyl)-8-(piperidin-4-yloxy)-5-(trifluoromethyl)quinazolin-2-amine] |
| < 5 µM | – | < 5 µM | FC(F)(F)c1ccc(OC2CCNCC2)c2nc(Nc3ccc(N4CCOCC4)cc3)ncc12 [Compound 385, N-(4-morpholinophenyl)-8-(piperidin-4-yloxy)-5-(trifluoromethyl)quinazolin-2-amine] |

Continued, molecule first:

| SMILES | IC50 (PDK1 kinase) | EC50 (PC-3 cells; [1]) | EC50 (PC-3 cells; Cell Proliferation Assay) |
| --- | --- | --- | --- |
| COCCn1cc(-c2ccc3cnc(Nc4ccc(C(=O)N5CCOCC5)cc4)nc3c2)cn1 [Compound 349, (4-(7-(1-(2-methoxyethyl)-1H-pyrazol-4-yl)quinazolin-2-ylamino)phenyl)(morpholino)methanone] | < 5 µM | < 5 µM | – |
| O=C(c1ccc(Nc2ncc3ccc(NCC4CCNCC4)cc3n2)cc1)N1CCOCC1 [Compound 351, morpholino(4-(7-(piperidin-4-ylmethylamino)quinazolin-2-ylamino)phenyl)methanone] | < 5 µM | 5 to 10 µM | – |
| O=C(c1ccc(Nc2ncc3ccc(N(CCO)CCO)cc3n2)cc1)N1CCOCC1 [Compound 352, (4-(7-(bis(2-hydroxyethyl)amino)quinazolin-2-ylamino)phenyl)(morpholino)methanone] | < 5 µM | 5 to 10 µM | – |
| CC(C)NC(=O)c1ccc(Nc2ncc3ccc(NC4CCN(C)CC4)cc3n2)cc1 [Compound 354, N-isopropyl-4-(7-(1-methylpiperidin-4-ylamino)quinazolin-2-ylamino)benzamide] | < 5 µM | < 5 µM | – |
| Cc1ccc(OC2CCNCC2)c2nc(Nc3ccc(C(=O)N4CCOCC4)cc3)ncc12 [Compound 356, (4-(5-methyl-8-(piperidin-4-yloxy)quinazolin-2-ylamino)phenyl)(morpholino)methanone] | < 5 µM | 5 to 10 µM | – |
| CC(C)N1CCC(Oc2ccc(Br)c3cnc(Nc4ccc(C(=O)N5CCOCC5)cc4)nc23)CC1 [Compound 358, (4-(5-bromo-8-(1-isopropylpiperidin-4-yloxy)quinazolin-2-ylamino)phenyl)(morpholino)methanone] | < 5 µM | 5 to 10 µM | – |
| Cc1ccc(OC2CCN(C(C)C)CC2)c2nc(Nc3ccc(S(=O)(=O)NC(C)C)cc3)ncc12 [Compound 360, N-isopropyl-4-(8-(1-isopropylpiperidin-4-yloxy)-5-methylquinazolin-2-ylamino)benzenesulfonamide] | < 5 µM | < 5 µM | – |
| NS(=O)(=O)c1ccc(Nc2ncc3ccc(NC4CCNCC4)cc3n2)cc1 [Compound 361, 4-(7-(piperidin-4-ylamino)quinazolin-2-ylamino)benzenesulfonamide] | < 5 µM | 5 to 10 µM | – |
| Cc1ccc(OC2CCNCC2)c2nc(Nc3ccc(N4CCOCC4)c(F)c3)ncc12 [Compound 366, N-(3-fluoro-4-morpholinophenyl)-5-methyl-8-(piperidin-4-yloxy)quinazolin-2-amine] | < 5 µM | 5 to 10 µM | – |
| Cc1ccc(OC2CCNCC2)c2nc(Nc3ccc(S(=O)(=O)N4CCOCC4)cc3)ncc12 [Compound 367, 5-methyl-N-(4-(morpholinosulfonyl)phenyl)-8-(piperidin-4-yloxy)quinazolin-2-amine] | < 5 µM | 5 to 10 µM | – |
| CN1CCC(Nc2ccc3cnc(Nc4ccc(N5CCOCC5)c(F)c4)nc3c2)CC1 [Compound 368, N2-(3-fluoro-4-morpholinophenyl)-N7-(1-methylpiperidin-4-yl)quinazoline-2,7-diamine] | < 5 µM | < 5 µM | – |
| COc1cc(C(=O)NC2CCN(C)CC2)ccc1Nc1ncc2c(C)ccc(OC3CCNCC3)c2n1 [Compound 375, 3-methoxy-4-(5-methyl-8-(piperidin-4-yloxy)quinazolin-2-ylamino)-N-(1-methylpiperidin-4-yl)benzamide] | 5 to 10 µM | 5 to 10 µM | – |
| COc1cccc(Nc2ncc3c(Cl)ccc(OC4CCNCC4)c3n2)c1 [Compound 380, 5-chloro-N-(3-methoxyphenyl)-8-(piperidin-4-yloxy)quinazolin-2-amine] | < 5 µM | < 5 µM | – |
| CC(C)N1CCC(Oc2cc(Br)cc3cnc(Nc4ccc(F)cc4)nc23)CC1 [Compound 389, 6-bromo-N-(4-fluorophenyl)-8-(1-isopropylpiperidin-4-yloxy)quinazolin-2-amine] | < 5 µM | < 5 µM | – |
